Measurements taken from BindingDB's records for doi:10.1021/acschembio.5b00940 (University of Washington, 2016).

Target: T1, Serine/threonine-protein kinase/endoribonuclease IRE1 [547-977] (Homo sapiens, UniProt O75460)
T1 construct: 547-977
Assay: In vitro RNase Assay
Excerpt: The fluorescence intensities were normalized by setting the signal for the reaction without IRE1α* to 0.

T1 sequence (O75460 547-977): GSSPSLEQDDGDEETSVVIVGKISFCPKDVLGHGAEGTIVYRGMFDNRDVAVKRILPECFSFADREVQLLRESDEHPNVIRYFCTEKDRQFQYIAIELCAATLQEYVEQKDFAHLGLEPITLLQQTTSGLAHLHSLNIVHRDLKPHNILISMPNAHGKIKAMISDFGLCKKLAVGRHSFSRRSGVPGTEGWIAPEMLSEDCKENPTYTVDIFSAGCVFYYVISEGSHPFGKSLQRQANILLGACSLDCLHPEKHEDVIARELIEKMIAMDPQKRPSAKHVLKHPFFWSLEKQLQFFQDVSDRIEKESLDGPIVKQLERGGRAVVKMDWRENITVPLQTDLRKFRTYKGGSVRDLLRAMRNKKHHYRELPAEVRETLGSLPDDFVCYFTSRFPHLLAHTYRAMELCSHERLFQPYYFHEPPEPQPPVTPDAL

Row | IC50 [nM] | Compound
1 | 7100 | Cc1cc(NC(=O)Nc2ccc(-c3nc(C4(C)CC4)n4ccnc(N)c34)c3ccccc23)n[nH]1 [KIRA analog, 22]
2 | 610 | CC1(c2nc(-c3ccc(NC(=O)Nc4cc(F)cc(C(F)(F)F)c4)c4ccccc34)c3c(N)nccn23)CC1 [KIRA analog, 18]
3 | 220 | CC1(c2nc(-c3ccc(NC(=O)Nc4cccc(F)c4)c4ccccc34)c3c(N)nccn23)CC1 [KIRA analog, 13]
4 | 19000 | CN(C(=O)Nc1ccc(-c2nc(C3(C)CC3)n3ccnc(N)c23)c2ccccc12)c1cccc(C(F)(F)F)c1 [KIRA analog, 29]
5 | 120 | CC(C)(C)c1nc(-c2ccc(NC(=O)Nc3cccc(C(F)(F)F)c3)c3ccccc23)c2c(N)nccn12 [KIRA analog, 2]
6 | 330 | CC1(c2nc(-c3ccc(NC(=O)Nc4cccc(C(F)(F)F)c4)c4ccccc34)c3c(N)nccn23)COC1 [KIRA analog, 6]
7 | 60000 | CC1(c2nc(-c3ccc(NC(=O)N4CCCCC4)c4ccccc34)c3c(N)nccn23)CC1 [KIRA analog, 27]
8 | 90 | CC1(c2nc(-c3ccc(NC(=O)Nc4cccc(C(F)(F)F)c4)c4ccccc34)c3c(N)nccn23)CC1 [KIRA analog, 3]
9 | 1600 | CNS(=O)(=O)c1cccc(NC(=O)Nc2ccc(-c3nc(C4(C)CC4)n4ccnc(N)c34)c3ccccc23)c1 [KIRA analog, 19]
10 | 190 | CC1(c2nc(-c3ccc(NC(=O)Nc4ccccc4)c4ccccc34)c3c(N)nccn23)CC1 [KIRA analog, 12]
11 | 290 | COc1cc(NC(=O)Nc2ccc(-c3nc(C4(C)CC4)n4ccnc(N)c34)c3ccccc23)cc(C(F)(F)F)c1 [KIRA analog, 17]
12 | > 60000 | CC(C)(C)c1nc(-c2ccc(NC(=O)N3CCN(c4cccc(C(F)(F)F)c4)C3=O)c3ccccc23)c2c(N)nccn12 [KIRA analog, 30]
13 | 140 | CSc1cccc(NC(=O)Nc2ccc(-c3nc(C4(C)CC4)n4ccnc(N)c34)c3ccccc23)c1 [KIRA analog, 16]
14 | 4100 | CC1(c2nc(-c3ccc(NC(=O)NCCc4ccccc4)c4ccccc34)c3c(N)nccn23)CC1 [KIRA analog, 24]
15 | 6300 | CC1(c2nc(-c3ccc(NC(=O)NC4CC4)c4ccccc34)c3c(N)nccn23)CC1 [KIRA analog, 28]
16 | 180 | Nc1nccn2c(C3CCC3)nc(-c3ccc(NC(=O)Nc4cccc(C(F)(F)F)c4)c4ccccc34)c12 [KIRA analog, 4]

Row | IC50 [nM] | Compound
17 | 60000 | CC1(c2nc(-c3ccc(NC(=O)OCC(=O)c4ccccc4)c4ccccc34)c3c(N)nccn23)CC1 [KIRA analog, 32]
18 | 340 | CN1CCN(Cc2ccc(NC(=O)Nc3ccc(-c4nc(C5(C)CC5)n5ccnc(N)c45)c4ccccc34)cc2)CC1 [KIRA analog, 21]
19 | 1500 | Cc1cc(NC(=O)Nc2cccc(C(F)(F)F)c2)ccc1-c1nc(C2(C)CC2)n2ccnc(N)c12 [KIRA analog, 8]
20 | 60000 | CC1(c2nc(-c3ccc(NC(=O)OCCc4ccccc4)c4ccccc34)c3c(N)nccn23)CC1 [KIRA analog, 31]
21 | 60000 | CC1(c2nc(-c3ccc(NC(=O)N4CCOCC4)c4ccccc34)c3c(N)nccn23)CC1 [KIRA analog, 26]
22 | 310 | COc1cccc(NC(=O)Nc2ccc(-c3nc(C4(C)CC4)n4ccnc(N)c34)c3ccccc23)c1 [KIRA analog, 15]
23 | 480 | Nc1nccn2c(C3CC3)nc(-c3ccc(NC(=O)Nc4cccc(C(F)(F)F)c4)c4ccccc34)c12 [KIRA analog, 5]
24 | 2400 | CC1(c2nc(-c3ccc(NC(=O)Nc4cccc(C(F)(F)F)c4)cc3Cl)c3c(N)nccn23)CC1 [KIRA analog, 9]
25 | 1200 | Cc1c(NC(=O)Nc2cccc(C(F)(F)F)c2)ccc(-c2nc(C3(C)CC3)n3ccnc(N)c23)c1C [KIRA analog, 10]
26 | 20000 | CC1(c2nc(-c3ccc(NC(=O)Nc4cccc(C(F)(F)F)c4)c(F)c3F)c3c(N)nccn23)CC1 [KIRA analog, 11]
27 | 190 | CN1CCN(Cc2ccc(NC(=O)Nc3ccc(-c4nc(C5(C)CC5)n5ccnc(N)c45)c4ccccc34)cc2C(F)(F)F)CC1 [KIRA analog, 20]
28 | 390 | CC1(c2nc(-c3ccc(NC(=O)Nc4cccc(C(F)(F)F)c4)cc3F)c3c(N)nccn23)CC1 [KIRA analog, 7]
29 | 260 | Cc1cccc(NC(=O)Nc2ccc(-c3nc(C4(C)CC4)n4ccnc(N)c34)c3ccccc23)c1 [KIRA analog, 14]
30 | 3600 | CC1(c2nc(-c3ccc(NC(=O)NCc4ccccc4)c4ccccc34)c3c(N)nccn23)CC1 [KIRA analog, 23]
31 | 2200 | CC1(c2nc(-c3ccc(NC(=O)NC4CCCCC4)c4ccccc34)c3c(N)nccn23)CC1 [KIRA analog, 25]
